In ChEMBL document CHEMBL3638995, “Disubstituted 3,4-diamino-3-cyclobutene-1,2-dione compounds for use in the treatment of chemokine-mediated pathologies” (2015):

What was measured:
[1] = target: T1, C-X-C chemokine receptor type 1 (Homo sapiens, UniProt P25024); test: (§1) Assay Drug Dev Technol. 2007 February; 5(1); 137-44).; type: cell-based
T1 sequence (P25024 whole entry): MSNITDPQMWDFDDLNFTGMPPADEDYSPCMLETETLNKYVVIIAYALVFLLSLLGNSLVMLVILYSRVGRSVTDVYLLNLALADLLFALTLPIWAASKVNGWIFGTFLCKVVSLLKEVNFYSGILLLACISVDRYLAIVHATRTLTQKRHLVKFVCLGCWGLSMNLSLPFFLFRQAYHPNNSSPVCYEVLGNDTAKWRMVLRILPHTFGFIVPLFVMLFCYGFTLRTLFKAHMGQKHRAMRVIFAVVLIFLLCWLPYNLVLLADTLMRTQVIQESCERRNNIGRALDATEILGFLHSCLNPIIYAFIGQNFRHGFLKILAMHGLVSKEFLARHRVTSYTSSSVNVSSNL

[2] = target: T2, C-X-C chemokine receptor type 2 (Homo sapiens, UniProt P25025); test: as §1; type: cell-based
T2 sequence (P25025 whole entry): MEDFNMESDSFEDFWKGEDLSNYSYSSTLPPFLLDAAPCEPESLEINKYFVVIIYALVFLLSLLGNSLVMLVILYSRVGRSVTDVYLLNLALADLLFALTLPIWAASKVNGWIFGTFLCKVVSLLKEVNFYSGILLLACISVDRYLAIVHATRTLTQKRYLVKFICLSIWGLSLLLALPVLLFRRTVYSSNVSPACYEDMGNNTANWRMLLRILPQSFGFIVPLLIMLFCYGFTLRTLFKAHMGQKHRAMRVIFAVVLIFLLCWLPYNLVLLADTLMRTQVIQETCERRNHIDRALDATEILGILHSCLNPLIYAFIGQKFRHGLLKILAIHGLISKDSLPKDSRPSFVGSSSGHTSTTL

IC50 [1] [nM] | IC50 [2] [nM] | Compound
3030 | 146 | Cc1ccc(C(Nc2c(Nc3cccc(C(=O)N(C)C)c3O)c(=O)c2=O)C2(C)COC2)s1 (stereo unspecified)
3900 | 96 | Cc1ccc([C@H](Nc2c(Nc3csc(C(=O)N(C)C)c3O)c(=O)c2=O)C2(C)COC2)o1

Compound | IC50 [1] [nM] | IC50 [2] [nM]
Cc1ccc([C@H](Nc2c(Nc3cccc(C(=O)N(C)C)c3O)c(=O)c2=O)C2(C)COC2)o1 | 312 | 72
